Test results published in patent US9783499B2, “Quinoline derivatives and their applications” (Shenyang Pharmaceutical University, priority 2012, dated 2017).

Tests used:
[1] = test system: human tumor cell lines (such as human lung cancer cells, human gastric cancer cells, etc.); conditions: cited from earlier work
[2] = test system: H460 (human lung cancer cell); experiment: In vitro anti-tumor cellular activity (MTT), H460; assay type: cell-based; conditions: 72 hours
Procedure: (§1) After pouring the cell dissociation buffer to the centrifugetube, nutrient solution was added to stop digestion. The centrifugetube were centrifuged for 10 min under 800 r/min, the liquid supernatant was removed, 5 mL culture solution was added, after mixing by pipetting the cell, took 10 μL cell suspension to the cell counting plat, and adjusted the cell concentration to 10^4/well. Among the 96 wells, A1 is empty, 100 μL of cell suspension were added to the other wells. The 96 well plates were incubated in the incubator for 24 h. […] The 96-well plates were placed in an incubator and cultivated for 72 hours. (3) The culture media containing the compounds in the 96-well plates was discarded, and the cells were washed with phosphate buffered solution (PBS) twice. Each well was added with 100 μL MTT (tetrazole) (0.5 mg/mL), and then placed in an incubator to incubate for 4 hours, after which MTT solution was discarded and 100 μL dimethyl sulfoxide was added thereto.

[3] = test system: HT-29 (colon cancer cell); experiment: In vitro anti-tumor cellular activity (MTT), HT-29; assay type: cell-based; conditions: 72 hours
Procedure: as §1

[4] = test system: MKN-45 (human gastric carcinoma cell); experiment: In vitro anti-tumor cellular activity (MTT), MKN-45; assay type: cell-based; conditions: 72 hours
Procedure: as §1

[5] = test system: SMMC-7721 (hepatoma cell); experiment: In vitro anti-tumor cellular activity (MTT), SMMC-7721; assay type: cell-based; conditions: 72 hours
Procedure: as §1

[6] = test system: MDA-MB-231 (human beast cancer cell); experiment: In vitro anti-tumor cellular activity (MTT), MDA-MB-231; assay type: cell-based; conditions: 72 hours
Procedure: as §1

[7] = test system: U87MG (Human malignant glioblastoma cell); experiment: In vitro anti-tumor cellular activity (MTT), U87MG; assay type: cell-based; conditions: 72 hours
Procedure: as §1

Compound | IC50 against a variety of human tumor cell lines [1] | H460 IC50 [2] | HT-29 IC50 [3] | MKN-45 IC50 [4] | SMMC-7721 IC50 [5] | MDA-MB-231 IC50 [6] | U87MG IC50 [7]
COc1cc2c(Oc3ccc(NC(=O)C4(C(=O)Nc5ccc(F)cc5)CC4)cc3F)ccnc2cc1OCCCN1CCOCC1 [Foretinib] | about 0.004 mg/mL |  |  |  |  |  | 
(E)-N^1-phenyl-N^4-(3-fluoro-4-(6-methoxy-7-(3-(4-methylpiperidin-1-yl)propoxy)quinoline-4-yloxy)benzaldehyde)thiosemicarbazone [Example 63] |  | 0.33 µg/mL | 0.50 µg/mL | 0.73 µg/mL | 0.64 µg/mL | 0.14 µg/mL | 1.0 µg/mL
